In patent US20250127698A1, “Hair Perming Compositions With Amine Derivatives” (ELC Management LLC, priority 2023, published 2025):

Legend:
[1] = pH of hair perming composition; type: physicochemical; conditions: for pH: hair perming composition: base of Table 2 (7.50% thioglycolic acid) plus alkalizer, same molar percentage of alkalizer
Description: For testing, we prepared the hair perming compositions shown by Tables 2 and 3, below. […] All compositions contain the same molar percentage of alkalizer, the water content being adjusted accordingly.

[2] = Curl efficiency after hair curling treatment; parameters: species or system human; conditions: for curl after the equivalent of 8 washes (in words) / curl lost after the equivalent of 8 washes, as percentage of initial curl (in words): Caucasian hair; for % Change In Curl Efficiency From 1 to 8 Washes / imparting curl (in words) / Curl Efficiency (%) After Treatment, 1 Wash and Dry / Curl Efficiency (%) After Treatment, 8 Washes and Dry: Type 1 Caucasian hair; for Curl Efficiency (%) After Treatment, 1 Wash and Dry: 1 wash with 5% SDS solution; for Curl Efficiency (%) After Treatment, 8 Washes and Dry: equivalent of 8 washes with 5% SDS solution
Description: (§1) The ability of each test composition to curl hair was established by measuring “curl efficiency”. Curl efficiency is a measure of curl tightness following a hair curling treatment. The higher the efficiency, the tighter the curl. We used a well-known method of measuring curl efficiency, wherein a portion of untreated straight hair of known length, Lu, is secured on an arrangement of pegs to form a sine wave pattern of five cycles, crest-to-crest. Because the pegs are fixed, the ideal length, Li, of the portion of hair when arranged into the five-cycle wave pattern, is known. Starting with a straight swatch of hair of length Lu, the ideal outcome would be a curled swatch of hair with a length of Li. Curl efficiency is a measure of how closely the ideal is attained.
(§2) Two types of hair samples were tested for curling; mixed sourced virgin Type 1Caucasian hair, and single sourced virgin Type 1 hair. For straightening, mixed sourced virgin Type 2C (very wavy) Caucasian hair was tested. Hair straightening test samples were prepared by collecting hair fibers into tresses, and clamping each tress at both ends. For those test samples that were to undergo a straightening treatment, the length, Lu, was measured between two previously determined points.
(§3) Each hair tress was wetted (reverse osmosis water). For curling, each hair tress was wound along a peg board to form a sine wave pattern of five cycles, as described above. For straightening, each hair tress was held on a board in a straight conformation, tension was applied, and the ends of the tress were secured. All test samples (curling or straightening) were allowed to dry before proceeding. Each board with a hair tress test sample was dipped for 10 seconds into a beaker with one of the hair perming compositions. After removing a board from solution, it was immediately placed in an oven for 20 minutes at 37° C. (normal body temperature). The test sample was removed from the oven, and rinsed for five minutes with 37° C. water, being careful not to allow the running water to fall directly on the hair tresses. After blotting with a paper towel, test samples were allowed to rest for five minutes at room temperature, for air oxidation to occur. The hair straightening test samples were removed from the board, blow dried and flat ironed at 200° C., which is commonly done in salon practice. At this point, the ideal length, Li, was measured between the two previously determined point mentioned above. Thereafter, each sample was rebound to the board.
(§4) Each bound hair tress was submerged for ten seconds in a 2% solution of H2O2 to neutralize the reducing agent and promote S-S bond formation, so that the hair tress would retain a desired shape (sine wave pattern or straight) when removed from the board. Each hair tress rested at room temperature for about five minutes, then was rinsed under 37° C. running water for five minutes, and subsequently blotted with a paper towel. Each test sample hair tress was removed from the board, laid on a flat surface, and allowed to dry. The fully permed dry tresses were washed in 5% SDS (sodium dodecyl sulfate) solution (which simulates salon practice) and allowed to dry overnight.
(§5) For the curling test samples, the length, Lt, of five waves, crest to crest was measured. For the straightening test samples, the final length, Lt, was measured between the two previously determined points. At this point, differential scanning calorimetry (DSC) measurements were made on a portion of each hair tress test sample. Also, for longevity performance, each tress was subjected to the equivalent of eight hand washings in 5% SDS solution using the GyroWash color fastness to laundering tester, and allowed to dry, before another length measurement, Lt, was made.
(§6) Curl efficiencies were computed using Equation 1.
(§7) [formula] • Lu=length of the untreated hair tress • Lt=crest-to-crest length of the five-wave portion of the treated hair tress • Li=ideal length of curled hair […]

[3] = Curl efficiency after hair curling treatment; parameters: species or system human; % Change In Curl Efficiency From 1 to 8 Washes: concentration or dose not given beside the values; conditions: for curl after the equivalent of 8 washes (in words) / curl lost after the equivalent of 8 washes, as percentage of initial curl (in words): Chinese hair; for % Change In Curl Efficiency From 1 to 8 Washes / imparting curl (in words) / Curl Efficiency (%) After Treatment, 1 Wash and Dry / Curl Efficiency (%) After Treatment, 8 Washes and Dry: Type 1 Chinese hair; for Curl Efficiency (%) After Treatment, 1 Wash and Dry: 1 wash with 5% SDS solution; for Curl Efficiency (%) After Treatment, 8 Washes and Dry: equivalent of 8 washes with 5% SDS solution
Description: as §1, §2, §3, §4, §5, §6, §7

[4] = Straightening efficiency after hair straightening treatment; parameters: species or system human; conditions: Type 2C Caucasian hair; 1 wash with 5% SDS solution
Description: The ability of each test composition to straighten curly hair was established by measuring “straightening efficiency”. Straightening efficiency represents the degree to which curly hair is made straight by a hair straightening treatment. We start with a curly, untreated hair tress of length Lu. The tress has an ideal straight length of Li, which is the length of the untreated tress when flat ironed to its maximum, straight length. After treatment the tress has a length of Lt. Straightening efficiency is the gain in length as a percentage of the maximum possible gain in length. […] A straightening efficiency of 100% means that the treated tress retained the maximum possible length.
as §2, §3, §4, §5
Straightening efficiencies were computed using Equation 2.
[formula] • Lu=length of the untreated hair tress • Lt=length of treated hair tress • Li=ideal length of straightened hair
(Li−Lu) represents the maximum possible increase in length as a result of treatment. […]

[5] = DSC keratin denaturation temperature change after curling treatment; parameters: species or system human; conditions: for ΔT (TUntreated−TAlkalizer, keratin denaturation temperature): Type 1 Chinese hair after curling treatment, larger ΔT indicates more damage; for damage to hair (in words): hair curling treatment, Type 1 Chinese hair
Description: (§8) This damage occurs at the level of keratin proteins.
(§9) Untreated hair was used as a control.
(§10) A larger ΔT indicates more damage.

[6] = DSC keratin denaturation temperature change after straightening treatment; parameters: species or system human; conditions: for ΔT (TUntreated−TAlkalizer, keratin denaturation temperature): Type 3 Caucasian hair after straightening, larger ΔT indicates more damage
Description: as §8, §9, §10

[7] = active component of alkalizer; cited from earlier work
[8] = DSC keratin denaturation temperature change after curling treatment; conditions: Type 1 Caucasian hair after curling treatment; larger ΔT indicates more damage
Description: It is known that the denaturation of keratin in hair can be detected by differential scanning calorimetry (DSC). DSC is a thermal analysis technique used to measure phase transition temperatures and heat of transformation (enthalpy) for endothermic and exothermic reactions.
For all of the test samples discussed above, DSC measurements were performed using the Discovery DSC 2500 (from TA Instruments. New Castle, DE). The experiments were carried out over a temperature range of 40° C. to 200° C., with a scan rate of 5° C./min under nitrogen protection. DSC samples were prepared by cutting tress samples into pieces (0.1 to 1.0 mm in size) and weighing. The hair samples were mixed with deionized water, and then sealed in high volume pans for at least 6 hours before measuring. The phase transition temperature (keratin denaturation temperature) of each hair sample was analyzed using TRIOS software (Discovery DSC 2500). Untreated hair was used as a control.
Each hair sample was analyzed at least twice, and the average temperature was obtained for data analysis. This was subtracted from the denaturation temperature of the control sample (ΔT=TUntreated−TAlkalizer). A larger ΔT indicates more damage.

| Molecule | pH of alkalizer composition ([1]; Table 7) | pH of alkalizer composition ([1]; Table 8) | pH of alkalizer composition ([1]; Table 9) | pH [1] | curl after the equivalent of 8 washes (in words) [2] | curl lost after the equivalent of 8 washes, as percentage of initial curl (in words) [2] | % Change In Curl Efficiency From 1 to 8 Washes [2] | imparting curl (in words) [2] | Curl Efficiency (%) After Treatment, 1 Wash and Dry [2] | Curl Efficiency (%) After Treatment, 8 Washes and Dry [2] | curl after the equivalent of 8 washes (in words) [3] | curl lost after the equivalent of 8 washes, as percentage of initial curl (in words) [3] | % Change In Curl Efficiency From 1 to 8 Washes [3] | imparting curl (in words) [3] | Curl Efficiency (%) After Treatment, 1 Wash and Dry [3] | Curl Efficiency (%) After Treatment, 8 Washes and Dry [3] | Straightening Efficiency (%) After Treatment, 1 Wash and Dry [4] | ΔT (TUntreated−TAlkalizer, keratin denaturation temperature) [5] | ΔT (TUntreated−TAlkalizer, keratin denaturation temperature) [6] | ΔT (TUntreated−TAlkalizer, keratin denaturation temperature) [8] | other results |
| --- | --- | --- | --- | --- | --- | --- | --- | --- | --- | --- | --- | --- | --- | --- | --- | --- | --- | --- | --- | --- | --- |
| DL-2-amino-1-propanol [DL-2-AP] | 9.45 | 9.45 | 9.45 | 9.45 | still had the most curl | lost the most curl of the tested samples | −11.11% | best at imparting curl | 50.47% | 44.86% | still had the most curl | lost the most curl of the tested samples | −21.01% | best at imparting curl | 69.81% | 55.14% | 95.35% | 3.49 C. ° | 3.20 °C | 3.95 °C | damage to hair (in words) [5]: did not perform as well as the other alkalizers; damage to hair (in words) ([6]; hair straightening treatment, Type 3 Caucasian hair): more damage than ammonium hydroxide, MEA or AMP; pKa [7]: 9.6 |
| NCC(O)CO (stereo not drawn) [Isoserinol, 3-Amino-1,2-propanediol] | 9.18 | 9.18 | 9.18 | 9.18 | ranked second for curl | comparable to or better than the standards | −7.69% | next best at imparting curl | 48.60% | 44.86% | ranked second for curl | comparable to or better than the standards | −10.93% | next best at imparting curl | 59.81% | 53.27% | 97.30% | 2.51 C. ° | 2.17 °C | 3.07 °C | damage to hair (in words) [5]: did not perform as well as the other alkalizers |
| CC(C)(N)CO [AMP, Aminomethyl propanol, reference compound] |  |  |  |  |  |  |  |  |  |  |  |  |  |  |  |  |  | 1.65 C. ° | 2.60 °C | 3.11 °C | pKa [7]: 9.82 |
